Laboratory results reported in patent US20200347389A1, “COMPOSITIONS AND METHODS FOR GENERATING DIVERSITY AT TARGETED NUCLEIC ACID SEQUENCES” (MONSANTO TECHNOLOGY LLC, priority 2019, published 2020).

Key:
rpoB gene [1] = experiment: rpoB/Rif^r assay: EMS mutagenesis of E. coli KL16 carrying pNUC-dSpCas9 + pGUIDE-Sp-Zm7.1; assay type: cell-based, Escherichia coli; conditions: for Rif^r CFUs in 5 μL (average) / Rif^r CFUs in 100 μL (average): one hour, cells with pNUC-dCas9 + pGUIDE-Sp-Zm7.1
From the text: This example describes the Escherichia coli rpoB gene and Rifampicin-resistant (Rif^r) mutations that map to rpoB as a system to characterize mutation rates and mutation types induced by chemical mutagens.
The E. coli K12 (strain MG1655) rpoB gene (SEQ ID NO: 1) encodes a subunit of the RNA polymerase complex (SEQ ID NO: 2) and is the target of the antibiotic rifampicin, a bacterial transcription inhibitor. A unique feature of the rpoB gene is that at least 69 nucleotide substitutions in 24 amino acid codons can confer the Rif^r phenotype to E. coli. This makes rpoB a useful target for screening and analyzing the type and frequency of nucleotide changes (e.g., additions, deletions, and substitutions induced by mutagens (reviewed in Garibyan et al., 2003, DNA Repair, 2:593-608). Furthermore, a majority of mutations that confer Rifampicin resistance (>90%) map to a relatively small, 268-nucleotide long, region of the rpoB gene. This allows PCR amplification with a single pair of oligonucleotide primers, followed by sequencing, which permits rapid analysis of numerous potential mutations. The aforementioned 268-bp fragment of the E. coli K12 rpoB gene is set forth as SEQ ID NO: 3. […] However, mutants comprising short, in-frame deletions (up to five amino acids) have been found, but at a much lower frequency (see, for example, Jin and Gross, J Mol Biol. 202:45-58 (1988)).
To test the rate and spectrum of mutations induced by EMS on rpoB, an experiment was performed where E. coli KL16 cells were co-transformed with pNUC-dSpCas9 and pGUIDE-Sp-Zm7.1; treated with 0.1% or 1% EMS. Resulting Rif^r mutations were selected and scored. The rpoB gene fragment (SEQ ID NO: 3) was sequenced from each colony and the predominant mutations were identified. As noted above in Example 2, pGUIDE-Sp-Zm7.1 is not expected to target the E. coli chromosome, and thus serves as a negative control.
Approximately 0.7 μL of pNUC-dSpCas9 and pGUIDE-Sp-Zm7.1 plasmid DNAs (approximate concentrations of 50 to 150 ng/μL) were added to 30 μL aliquots of electrocompetent E. coli KL16 cells. The cells and DNA were electroporated in 1 mm gap cuvettes, using Bio-Rad GenePulser II with settings described above in Example 2. Approximately 1 mL of S.O.C. medium was added to the cuvettes, mixed, transferred to culture tubes, and shaken in a 37° C. incubator shaker for ˜90 min at 280 RPM. Approximately 20 μL of the mix was diluted with 380 μL of S.O.C. medium (1:20 dilution), 100 μL was plated on LB plates containing +25 μg/mL Cm, +50 μg/mL Spect antibiotics followed by overnight incubation at 37° C. After overnight growth, the plates contained ˜100-400 uniform single colonies. Four to five single colonies from the plates were picked and mixed in 2.5 mL liquid LB media containing +25 μg/mL Cm, +50 μg/mL Spect. The culture was grown overnight at 37° C. with shaking at 280 RPM. The following day the saturated overnight culture was diluted into 3 mL of fresh LB +25 μg/mL Cm, +50 μg/mL Spect at a 1:20 ratio. After growth for ˜3 hours shaking (280 RPM) at 37° C., the culture was in exponential growth with an A600 absorbance measurement of ˜1. The culture was split into three 1 mL aliquots in Eppendorf tubes, then spun at full speed for one minute. The LB supernatant was removed and the small pellets were resuspended by gentle pipetting into 1 mL PBS and transferred to culture tubes.
Approximately 1 μL of EMS (Sigma M0880) was added to the first tube (0.1% EMS, final conc.) and approximately 10 μL of EMS was added to the second tube (1% EMS, final conc.). The third tube received no EMS (0% EMS). After mixing, the tubes were incubated at 37° C. with shaking for one hour. The 1 mL cultures were transferred back into Eppendorf tubes and spun at full speed for 1 minute. The pellets were washed once with PBS to remove EMS and resuspended in 1 mL LB+25 μg/mL Cm, +50 μg/mL Spect. […]

rpoB gene [2] = experiment: Deep sequencing of the rpoB fragment from Rif^r colonies; assay type: cell-based, Escherichia coli; conditions: 0.1% and 1% EMS, untargeted dCas9
Protocol: Ninety-six Rif^r colonies from 0.1% and 1% EMS treatment assays were picked and colony PCR was carried out to amplify the […] rpoB fragment. Approximately 20 μL PCRs reactions were carried out in 96 well plates, using forward and reverse primers comprising Illumina barcoded adaptors and designed to amplify a […] rpoB fragment associated with mutations conferring the Rif^r phenotype. The success of the reactions was checked by running ˜5 μL of 8-12 samples picked from across the 96 wells and running on e-gels. […] After obtaining the raw reads, adaptor sequences were removed with the program Cutadapt (Martin, EMBnet.journal, 2011, [S1], v17, n1, p. pp. 10-12, ISSN 2226-6089) and low quality reads are filtered with Trimmomatic (Version 0.36) (Bolger et al., Bioinformatics, 30:2114 (2014)). The program ‘glsearch’ (Pearson, Methods Mol Biol., 132:185-219 (2000)), was used to map reads to the reference rpoB sequence and to detect substitutions and small INDELs. […]
Individual colonies as well as plate scrapes (pooled colonies) were sequenced. […] Quality reads were obtained from 71 colonies for treatment 1, 92 colonies for treatment 2, and 89 colonies for treatment 3. Quality reads were also obtained from the Plate scrape samples.

rpoB gene [3] = conditions: at eight sites; Garibyan et al.; cited from earlier work
[4] = EMS-mutated populations; cited from earlier work
DNA = conditions: D832A/E925A (dLbCpf1); D10A/H840A (dSpCas9); cited from earlier work

Row | Molecule | increase of mutation rate relative to the spontaneous mutation rate (rpoB gene [1]; 0.1% EMS) | Rif^r CFUs in 5 μL (average) (rpoB gene [1]; 0.1% EMS) | Rif^r CFUs in 100 μL (average) (rpoB gene [1]; 0.1% EMS) | increase of mutation rate relative to the spontaneous mutation rate (rpoB gene [1]; 1.0% EMS) | Rif^r CFUs in 5 μL (average) (rpoB gene [1]; 1% EMS) | Rif^r CFUs in 100 μL (average) (rpoB gene [1]; 1% EMS) | colonies with an in-frame 15 nucleotide deletion (rpoB gene [2]) | mutations previously described as inducing the Rif^r phenotype identified in the EMS screen (rpoB gene [2]) | mutations identified within the 268-bp stretch of rpoB, all G:C→A:T transitions (rpoB gene [3]) | modifications that are G:C→A:T base pair transitions [4] | DNA cleavage activity (DNA)
1 | CCOS(C)(=O)=O [EMS, ethyl methanesulfonate] | ~40 × | 18 CFUs | 280 CFUs | ~2600 × | 1036 CFUs | >10^4 CFUs | Four | ten of the thirteen | 40 | 70% to 99% | 
2 | dSpCas9: dead SpCas9 with D10A and H840A substitutions (SEQ ID NO: 22) |  |  |  |  |  |  |  |  |  |  | complete abolishment of DNA cleavage activity
